According to US10669588B2, “Methods for sub-typing and treating cancer” (HI-STEM GGMBH im Deutschen, priority 2014, dated 2020):
Read-outs that look alike come from different tables or passages of the source.

What was measured:
CYP3A5 [1] = assay: Measurement of conversion of erlotinib and dasatinib in cell supernatant (LC-MS/MS); assay type: in vitro ADME, human; details: 1 μM and 10 μM; for metabolism of drug in the absence of CYP3A5: CYP3A5 siRNA transfected exocrine-like PACO14, PACO18; for conversion of drug (disappearance of unmodified structure from supernatant): exocrine-like PACO14, PACO18, six time points
Protocol: In brief, the amount of unmodified dasatinib and erlotinib in the supernatant of cells was monitored by quantitative LC-MS/MS analysis on an AB Sciex QTrap 5500 tandem mass spectrometer.
500 μl of reaction media were quenched with 1,000 μL of acetonitrile at each time point and mixed. After centrifugation clear supernatants were pre-diluted with PACO media and acetonitrile at a ratio 1:25. 100 μL of the sample were transferred into a new vial, followed by addition of 10 μL (S)-(−)-Propranolol hydrochloride solution (105 μg/L) and finally vigorously mixed. 10 μL were injected onto column. Calibration and quality control samples were prepared by spiking either dasatinib or erlotinib to the PACO media. The sample was injected onto a PerfectSil Target ODS-3, 3 μm, 100×2.1 mm HPLC column (MZ-Analysentechnik, Mainz, Germany), using an Agilent 1100 (Agilent, Waldbrunn, Germany) binary pump and degasser, with a CTC PAL sampler (CTC Analytics, Zwingen, Switzerland). The column temperature was 35° C. Chromatographic separation was performed by gradient elution at a constant flow rate of 250 μL/min for 15 minutes. The gradient consisted of 20 mM NH4OAc plus 0.1% formic acid (mobile phase A) and 400 mM NH4OAc/methanol/acetonitrile 5:5:90 plus 0.1% formic acid (mobile phase B). The gradient applied was 0.0 min, 70% A/30% B; 1.5 min 70% A/30% B; 3.0 min 5% A/95% B; 11.0 min 5% A/95% B; 11.5 min 70% A/30% B and 15 min 70% A/30% B. The eluate was directed to an AB Sciex QTrap 5500 tandem mass spectrometer (AB Sciex, Darmstadt, Germany) with an electron spray ionization (ESI) source from 4 to 8 min runtime. Mass transitions of 488.1 to 401.1 for dasatinib, 394.0 to 278.1 for erlotinib and 260.1 to 116.1 for (S)-(−)-Propranolol were monitored. […] Nitrogen was produced by a high purity nitrogen generator (CMC Instruments) and applied to curtain, collision and drying gasses. De-clustering potentials, collision energy and collision exit potential were as follows: 26 V, 39 V and 12 V for dasatinib, 16 V, 43 V and 26 V for erlotinib and 61 V, 23 V and 14 V for (S)-(−)-Propranolol.

exocrine-like PACO cells = assay type: cell-based, human
Protocol: (§1) Quantitative results were analyzed by one-way analysis of variance (multiple groups/grouped analysis) and Student's t test (two groups), using GraphPad Prism (Graph Pad Software). Survival analysis was performed using Mantel-Cox log-rank test as well as Cox proportional hazards multivariate analysis using the Statistical Package for the Social Sciences (IPM SPSS software). Additionally, Pearson chi-squared test was used for comparative data analysis, using SPSS. We considered p<0.05 (two-sided) as statistically significant. For GSEA a False Discovery Rate (FDR) of <0.2 was considered statistically significant. Treatment data were evaluated by determining the activity area (Barretina et al., 2012) from each dose response curve by adding max (100-mean response, 0) for every concentration. Activity areas from the same biological replicate were compared by paired t-test. Calculations were performed in R Version 3.1.0 (Chee et al., 2013).

CYP3A4 and CYP3A7 [2] = details: for expression of CYP3A4 and CYP3A7 in drug-resistant cell lines: PACO2, PACO7 after 8 weeks of increasing doses; for expression of CYP3A4 and CYP3A7 in response to drug: PACO2, PACO10, PACO14, PACO9, 10 μM drug
CYP3A5 [3] = assay: CYP3A5 mRNA (qRT-PCR) and protein (Western blot) expression in PACO cells after drug exposure; assay type: cell-based, human; details: for CYP3A5 mRNA expression in drug-resistant cell lines: PACO2, PACO7 after 8 weeks of increasing doses, vs control cell lines; for CYP3A5 expression in response to drug: QM-PDA (PACO9) and classical (PACO2) PACO lines, 10 μM drug; for CYP3A5 mRNA and protein expression in response to drug: exocrine-like PACO10, PACO14, 10 μM drug vs basal level
[4] = tested on: drug-resistant sublines of classical (PACO2) and QM-PDA (PACO7) cells; assay: Drug sensitivity of drug-resistant sublines from 8-week treatment; details: for resistance of sublines to the drug used for long-term treatment: PACO2, PACO7 treated with increasing doses over 8 weeks, vs DMSO-control treated parental lines
[5] = tested on: tumors derived from exocrine-like PACO lines (PACO10, PACO14); assay: In vivo drug treatment of subcutaneous shCYP3A5 or shScr PACO tumors; set-up: species or system NSG mice; details: 100 mg/kg oral gavage, 5 days on / 2 days rest, 14 days
Protocol: Tumors were established by subcutaneously injecting 5×10^5 shCYP3A5 or shScr PACO cells into female NOD.Cg-Prkdc^scid II2rg^tm1Wjl (NSG) mice (n=48) using Matrigel (2 mg/ml) in a total injection volume of 100 μl. After the tumors reached a size of approximately 200 mm^3, mice were randomized into eight groups (n=6 each) for drug administration. Erlotinib was prepared in 0.5% methylcellulose, 0.1% Tween 80 and 99.4% water for injection (WFI). Erlotinib (100 mg/kg) or vehicle were then administrated by oral gavage at 5 consecutive days followed by 2 days of rest, for duration of 14 days. Tumor volume was determined twice weekly by calliper measurements and calculated according to the formula (length×height×width)×(π/6). Tumor growth was calculated for each individual tumor by normalizing to the tumor volume at day 0. After two weeks of treatment, mice were sacrificed and tumors were resected for further analysis.

[6] = tested on: classical and QM-PDA PACO cells; assay: Drug treatment assay, relative cell viability (CellTiterBlue); assay type: cell-based, human; details: for drug sensitivity after ketoconazole pre-treatment (relative cell viability, activity area): QM-PDA (PACO9) and classical (PACO2), 100 nM ketoconazole pre-treatment for 2 hours vs vehicle, 48 hours; for drug sensitivity (relative cell viability): classical and QM-PDA subtype PACO lines, 1 μM or 10 μM, after 48 hours
Protocol: as §1

HepG2 cells = assay: Paclitaxel sensitivity of hepatocellular carcinoma cells
SNU5 cells = assay: Paclitaxel sensitivity of gastric cancer cells; assay type: cell-based, human; details: gastric cancer cell line SNU5
CYP3A5 [7] = assay: CYP3A5 expression in xenografts after paclitaxel treatment in vivo (qRT-PCR, immunohistochemistry); set-up: species or system mice; details: classical subtype (PACO17) xenografts; after 18 days of treatment; vs vehicle
CYP3A4 and CYP3A7 [8] = assay: CYP3A4 and CYP3A7 expression in xenografts after paclitaxel treatment in vivo (qRT-PCR); set-up: species or system mice; details: classical subtype (PACO17) xenografts; after 18 days of treatment; vs vehicle
[9] = exocrine-like subtype PACO lines, 1 μM or 10 μM, after 48 hours

Row | SMILES | expression of CYP3A4 and CYP3A7 in drug-resistant cell lines (CYP3A4 and CYP3A7 [2]) | expression of CYP3A4 and CYP3A7 in response to drug (CYP3A4 and CYP3A7 [2]) | CYP3A5 mRNA expression in drug-resistant cell lines (CYP3A5 [3]) | CYP3A5 expression in response to drug (CYP3A5 [3]) | CYP3A5 mRNA and protein expression in response to drug (CYP3A5 [3]) | metabolism of drug in the absence of CYP3A5 (CYP3A5 [1]) | conversion of drug (disappearance of unmodified structure from supernatant) (CYP3A5 [1]) | drug sensitivity after CYP3A5 siRNA knockdown (relative cell viability, activity area) (exocrine-like PACO cells) | resistance of sublines to the drug used for long-term treatment [4] | drug sensitivity (relative cell viability) (exocrine-like PACO cells; [9]) | drug sensitivity after ketoconazole pre-treatment (relative cell viability, activity area) [6] | drug sensitivity (relative cell viability) [6] | other results
1 | Cc1nc(Nc2ncc(C(=O)Nc3c(C)cccc3Cl)s2)cc(N2CCN(CCO)CC2)n1 [dasatinib] | not detectable | not induced | significantly higher | did not prompt CYP3A5 expression | strongly induced | completely abolished | rapid conversion | dramatically sensitized |  |  |  |  | 
2 | C#Cc1cccc(Nc2ncnc3cc(OCCOC)c(OCCOC)cc23)c1 [erlotinib] | not detectable | not induced | significantly higher | did not prompt CYP3A5 expression | strongly induced | completely abolished | rapid conversion | dramatically sensitized | significantly higher resistance | almost completely resistant | remained unchanged | sensitive | drug sensitivity after ketoconazole pre-treatment (relative cell viability, activity area) (exocrine-like PACO cells; exocrine-like (PACO14), 100 nM ketoconazole pre-treatment for 2 hours vs vehicle, 48 hours): significantly more sensitive; growth of CYP3A5 knockdown tumors ([5]; shCYP3A5 tumors): completely inhibited; effect on growth of control tumors ([5]; shScr control tumors): no effect
3 | CCc1c2c(nc3ccc(OC(=O)N4CCC(N5CCCCC5)CC4)cc13)-c1cc3c(c(=O)n1C2)COC(=O)[C@]3(O)CC [irinotecan] |  |  |  |  |  |  |  |  |  |  |  |  | drug sensitivity after knockdown of CYP3A5 (exocrine-like PACO cells): sensitive; drug sensitivity (relative cell viability) (exocrine-like PACO cells; exocrine-like subtype compared to the other two subtypes, 1 μM and 10 μM, 48 h and 7 d): highly resistant
4 | CC(=O)N1CCN(c2ccc(OCC3COC(Cn4ccnc4)(c4ccc(Cl)cc4Cl)O3)cc2)CC1 (stereo not drawn) [ketoconazole] |  |  |  |  |  |  |  |  |  |  |  |  | sensitization to paclitaxel by inhibition of CYP function (HepG2 cells; HepG2 cells, compared with CYP3A5 knockdown): even stronger sensitization; sensitization of paclitaxel-resistant cell lines by co-treatment ([4]; paclitaxel-resistant PACO2 and PACO7 sublines, co-treatment with paclitaxel): comparable sensitization; sensitization to paclitaxel by inhibition of CYP activity (SNU5 cells): strongly sensitized

Second part, led by results:

Row | expression of CYP3A4 and CYP3A7 in drug-resistant cell lines (CYP3A4 and CYP3A7 [2]) | expression of CYP3A4 and CYP3A7 in response to drug (CYP3A4 and CYP3A7 [2]) | CYP3A5 mRNA expression in drug-resistant cell lines (CYP3A5 [3]) | CYP3A5 expression in response to drug (CYP3A5 [3]) | CYP3A5 mRNA and protein expression in response to drug (CYP3A5 [3]) | SMILES | metabolism of drug in the absence of CYP3A5 (CYP3A5 [1]) | conversion of drug (disappearance of unmodified structure from supernatant) (CYP3A5 [1]) | drug sensitivity after CYP3A5 siRNA knockdown (relative cell viability, activity area) (exocrine-like PACO cells) | resistance of sublines to the drug used for long-term treatment [4] | drug sensitivity (relative cell viability) (exocrine-like PACO cells; [9]) | drug sensitivity after ketoconazole pre-treatment (relative cell viability, activity area) [6] | drug sensitivity (relative cell viability) [6] | other results
5 |  | not induced |  | did not prompt CYP3A5 expression | did not lead to the induction of CYP3A5 | Nc1ccn([C@@H]2O[C@H](CO)[C@@H](O)C2(F)F)c(=O)n1 [gemcitabine] |  |  | remained unchanged |  | almost completely resistant | remained unchanged | sensitive | 
6 | not detectable |  | significantly higher |  |  | CC(=O)O[C@H]1C(=O)[C@@]2(C)[C@H]([C@H](OC(=O)c3ccccc3)[C@]3(O)C[C@H](OC(=O)[C@H](O)[C@@H](NC(=O)c4ccccc4)c4ccccc4)C(C)=C1C3(C)C)[C@]1(OC(C)=O)CO[C@@H]1C[C@@H]2O [paclitaxel] |  |  |  | significantly higher resistance |  |  |  | sensitivity to drug (HepG2 cells; HepG2 cells treated with non-targeting control siRNA): almost completely resistant; sensitivity to drug after knockdown of CYP3A5 (HepG2 cells; HepG2 cells, siRNA-mediated knockdown of CYP3A5): significantly sensitized; CYP3A5 expression in treated xenografts (CYP3A5 [7]): upregulation of CYP3A5; expression of CYP3A4 and CYP3A7 in treated xenografts (CYP3A4 and CYP3A7 [8]): not upregulated
